This note sets out measurements from patent US6525001B1, “Substituted pyrimidine and pyridine herbicides” (Mid-American Commercialization Corporation, priority 1997, dated 2003).

Common to all, as to test: Test D
Common to all, as to assay type: in vivo
What all share (conditions): PREEMERGENCE

Test [1] deals with winter barley (Hordeum vulgare).
The test system of test [2] is lambsquarters (Chenopodium album).
The subject of test [3] is spring wheat (Triticum aestivum).
Test [4] has as its system sugar beet (Beta vulgaris). Also noted: key: 0 is no effect; 100 is complete control.
For test [5], the system named is chickweed (Stellaria media).

As to `Cc1cnc(-n2cnc(C(F)(F)F)n2)nc1Cn1ccc(C(F)(F)F)n1` [Compound 51], the “Plant response rating, Barley (winter)” value is on record as 50 in test [1] (Rate 31 g/ha) and 90 in test [1] (Rate 62 g/ha). Besides, the “Plant response rating, Lambsquarters” value in test [2] (Rate 31 g/ha) and in test [2] (Rate 62 g/ha) was 70 each time. Moreover, the “Plant response rating, Spring Wheat” value was determined as 60 in test [3] (Rate 31 g/ha) and 70 in test [3] (Rate 62 g/ha). For the same molecule, the “Plant response rating, Sugar beet” value in test [4] (Rate 31 g/ha) and in test [4] (Rate 62 g/ha) was 100 throughout. Also, the “Plant response rating, Chickweed” value in test [5] (Rate 31 g/ha) is 80; in test [5] (Rate 62 g/ha), 90.
